In data set [1] the test system is human cystinotic fibroblasts (GM00008). The experiment in a line: Cytotoxicity (MTT cell viability) in cystinotic fibroblast cell culture. The note with it: 25, 50 or 75 μM, 48 and 72 hours (FIGS. 1 and 2), MTT. It is filed as cell-based. As to the method:
Appropriate concentrations of the NACA and diNACA were selected and incubated along with human cystinotic fibroblasts in media. […] Media was then removed, and cells were incubated in 0.5mg/ml MTT (3-(4,5-dimethylthiazol-2-yl)-2,5-diphenyltetrazolium bromide) reconstituted in media. A colorimetric assay used reduction of the yellow tetrazolium salt (MTT) to a purple formazan salt in order to measure cellular metabolic activity as a proxy for cell viability. Treated cells were incubated in MTT for 4 hours at 37° C., after which time intracellular purple formazan salt crystals were visible under a microscope. MTT solution was then removed, and DMSO was added to each well in order to lyse cells and dissolve the salt crystals. After 1 hour incubation at 37° C., absorbance was measured on a multiwell plate reader (Biotek FL6000) at 570 nm, and percentage cell viability calculated.

The conditions of data set [2]: eyedrops, stored at −20° C. until dispensed, kept refrigerated once opened; cited from earlier work.
A further data set has as its system rabbit eyes. The experiment in a line: Ophthalmic tolerability, daily Draize scores after topical ocular administration. It is filed as in vivo. The note with it: rabbits. As to the method: To simulate topical ocular exposure to an ophthalmic insert containing AGENT, prototype ophthalmic formulations were prepared containing either 1% NPI-001, 1% diNACA, 1% NAC or vehicle and tested to evaluate ocular tolerability. Three rabbits per group were administered 1% NPI-001, 1% di-NAC, 1% NAC in a prototype vehicle, via bilateral topical administration four times a day for 6 days, and once on Day 7.

The conditions of data set [3]: humans, oral dose of 600 mg; cited from earlier work.
[4] abbreviates: 1% in prototype vehicle, bilateral topical four times a day, Day 1, per animal and eye.
[5] abbreviates: 1% in prototype vehicle, bilateral topical four times a day, Day 2, per animal and eye.
[6] abbreviates: 1% in prototype vehicle, bilateral topical four times a day, Day 3, per animal and eye.
Setting [7] is: 1% in prototype vehicle, bilateral topical four times a day, Day 4, per animal and eye.
[8] abbreviates: 1% in prototype vehicle, bilateral topical four times a day, Day 5, per animal and eye.
Setting [9] is: 1% in prototype vehicle, bilateral topical four times a day, Day 6, per animal and eye.
[10] abbreviates: 1% in prototype vehicle, bilateral topical, once on Day 7, Day 7, per animal and eye.
Setting [11] is: 1% in prototype vehicle, bilateral topical, (baseline), per animal and eye.

Molecules are shown by their SMILES. Where “and” joins values, the source holds several entries; their conditions need not be identical. Identical values can stand only once.

Take `NCCS` [cysteamine, reference compound]: in data set [1], the “cell viability (cytotoxicity) versus no treatment” value was “increased cell viability”. Besides, the shelf life in data set [2] is on record as 1 week.

In the case of `CC(=O)NC(CS)C(=O)O` (stereo not shown) [NAC, N-acetylcysteine, reference compound], in the data set on rabbit eyes (setting [4]), the “Daily Draize Scores for Chemosis, Day 1” value stood at 0; the “Daily Draize Scores for Discharge, Day 1” value came to 0; the “Daily Draize Scores for Hyperemia, Day 1” value was determined as 0. Also, in the data set on rabbit eyes (setting [5]), the “Daily Draize Scores for Chemosis, Day 2” value was 0; the “Daily Draize Scores for Discharge, Day 2” value is 0 (4×) and 0.5 (2×); the “Daily Draize Scores for Hyperemia, Day 2” value was 0 (4×) and 0.5 (2×). Also, in the data set on rabbit eyes (setting [6]), the “Daily Draize Scores for Chemosis, Day 3” value is 0; the “Daily Draize Scores for Discharge, Day 3” value turned out to be 0; the “Daily Draize Scores for Hyperemia, Day 3” value is 0 (3×) and 0.5 (3×). For the same compound, in the data set with rabbit eyes (setting [7]), the “Daily Draize Scores for Chemosis, Day 4” value was 0; the “Daily Draize Scores for Discharge, Day 4” value is 0 (4×) and 1 and 0.5; the “Daily Draize Scores for Hyperemia, Day 4” value is recorded as 0. In the data set on rabbit eyes (setting [8]), the “Daily Draize Scores for Chemosis, Day 5” value came to 0; the “Daily Draize Scores for Discharge, Day 5” value is 0.5 and 0 (5×); the “Daily Draize Scores for Hyperemia, Day 5” value is reported as 0. Further, in the data set with rabbit eyes (setting [9]), the “Daily Draize Scores for Chemosis, Day 6” value came out at 0; the “Daily Draize Scores for Discharge, Day 6” value is 0 (3×) and 1 (3×); the “Daily Draize Scores for Hyperemia, Day 6” value turned out to be 0. Besides, in the data set on rabbit eyes (setting [10]), the “Daily Draize Scores for Chemosis, Day 7” value is 0; the “Daily Draize Scores for Discharge, Day 7” value is 0.5 (4×) and 1 and 0; the “Daily Draize Scores for Hyperemia, Day 7” value is 1 (3×) and 0.5 (3×). Besides, in the data set on rabbit eyes (setting [11]), the “Daily Draize Scores for Chemosis, Day B” value amounted to 0; the “Daily Draize Scores for Discharge, Day B” value came out at 0; the “Daily Draize Scores for Hyperemia, Day B” value was 0. For the same compound, the “ocular hyperemia, observation over the study” value with rabbit eyes (1%, four times a day for 6 days, once on Day 7) is “mild hyperemia was observed at low frequencies”. Also, in data set [3], the “time after administration at which no NAC is detectable” value was 10 to 12 h.
